*: point of attachment. pNA = O=[N+]([O-])c1ccc(N*)cc1; MeOSuc = COC(=O)CCC(=O)*
Key:
[1] = system: other species of Legionella; details: cited from earlier work
[2] = system: strains of Legionella pneumophila; details: out of 283 strains of Legionella pneumophila tested; cited from earlier work
[3] = system: Pseudomonas aeruginosa; details: cited from earlier work
[4] = system: CC(=O)N[C@@H](CO)C(=O)N[C@@H](CCCCN)C(=O)NCC(=O)N[C@@H](Cc1ccc2ccc3cccc4ccc1c2c34)C(=O)N[C@@H](Cc1ccc(O)c([N+](=O)[O-])c1)C(=O)NCC(=O)NCC(=O)N[C@@H](CCCCN)C(N)=O; experiment: purified protein, by the assay type; details: pH 7.0; 37.0 °C

Substance	species that responded positively [1]	strains that degraded the substrate [2]	Pseudomonas aeruginosa that responded positively [3]	Km [4]	kcat [4]
MeOSuc-Arg-Pro-Tyr-pNA [Compound S-2586]	2	282	22	–	–
Msp (Legionella pneumophila)	–	–	–	6.8 ± 0.6 µM	23.9 ± 0.7 s⁻¹
